# From patent US20260174791A1, “MACROPHAGE MIGRATION INHIBITORY FACTOR (MIF) TARGETING FOR THE TREATMENT OF NON-SMALL CELL LUNG CANCER” (Board of Regents, The University of Texas System, priority 2022, published 2026)
# Experiments:
# [1] = test system: lung cancer patients, EGFR or KRAS mutation; conditions: patients who harbor an EGFR mutation; cited from earlier work
# [2] = test system: NSCLC patients with STK11/LKB1 and/or KEAP1 mutations; assay: Clinical data, pembrolizumab plus first-line chemotherapy in NSCLC patients; format: in vivo, human
# Description: FIG. 1A is a graph illustrating response rates to pemetrexed/platin/pembrolizumab (PCP) chemo-immunotherapy in STK11 and KEAP1-defined wild type (wt) and mutant subgroups. FIG. 1B is a graph illustrating response rates to pemetrexed/platin/pembrolizumab (PCP) chemo-immunotherapy in STK11 and KEAP1-defined wild type (wt) and mutant subgroups. […] FIG. 1D a Kaplan-Mayer graph illustrating overall survival of STK11/LKB1 and KEAP1 mutant or wt defined patients.
Compound,response rate [1] [%],"refractory disease on pembrolizumab plus standard care first-line chemotherapies ([2]; NSCLC patients (n=139), STK11/LKB1 and/or KEAP1 mutant vs wild type)","clinical benefit (survival) of adding pembrolizumab to chemotherapy ([2]; patients with STK11 and/or KEAP1 genomic alterations, vs chemotherapy alone)"
C#Cc1cccc(Nc2ncnc3cc(OCCOC)c(OCCOC)cc23)c1 [erlotinib],60,–,–
pembrolizumab,–,higher percentage of patients with refractory diseases,did not result in clinical benefit
